The results in this text go back to US10696639B2, “Heterocyclic compounds as HIV protease inhibitors” (Merck Sharp & Dohme Corp., priority 2016, dated 2020).

In this assay the target is T1, wild-type HIV-1 protease (Human immunodeficiency virus type 1 group M subtype B, UniProt P04585).
T1 construct: Escherichia coli expressed wild-type HIV-1 protease protein; made in house; host or cells: Escherichia coli
Description: Assay for Inhibition of Microbial Expressed HIV Protease. As to conditions: E. coli expressed wild-type HIV-1 protease, peptide substrate cleavage, LC-MS readout; mean of at least two independent experiments; read-out: HIV Pr Enzyme HIV1 PR IC50. Format: biochemical. How it is done: Assay for Inhibition of Microbial Expressed HIV Protease
Inhibition of Escherichia coli expressed wild-type HIV-1 protease protein was carried out with a peptide substrate [Val-Ser-Gln-Asn-(βnaphtyl)Ala-Pro-Ile-Val]. The inhibitor compound was preincubated with HIV-1 protease enzyme in assay buffer (50 mM sodium acetate, pH 5.5, 100 mM NaCl, and 0.1% BSA) for 30 minutes at room temperature. Peptide substrate was added to […] in a total volume of 20 μL containing 20 pM HIV-1 protease (final) after which the reaction was incubated for 1 hour at 30° C. The reaction was quenched by the addition of formic acid and HIV protease inhibitor indinavir to 0.012% and 150 nM final concentrations, respectively. Product formation was determined after separation of product and substrate on a ZORBAX Eclipse XDB-C18 column (Aligent Technologies, Santa Clara, Calif., USA) connected to an API 4000™ mass spectrometer (AB Sciex, Pte. Ltd., Concord Ontario, Canada) with multiple reaction monitoring (transitions were 644.5/428.9 and 615.4/422.2 (M1/M3) for product and indinavir respectively). The extent of inhibition of the reaction was determined from the peak area of the products. Analysis of the products, independently synthesized, provided quantitation standards and confirmation of the product composition.
One may read the IC50 as the concentration at which inhibition is half-maximal. For `CC[C@@H](CCCN1C(=N)N[C@](CC(C)C)(c2ccccc2)C1=O)NC(=O)[C@H](Cc1ccccc1)NC(=O)OC` [Example 47, N-{(1S)-1-ethyl-4-[(4R)-2-imino-4-(2-methylpropyl)-5 oxo-4-phenylimidazolidin-1 yl]butyl}-N-alpha-(methoxycarbonyl)-L-phenylalaninamide], the IC50 is 22 nM.

Take `CC[C@@H](CCCN1C(=N)N[C@](CC(C)C)(c2ccccc2)C1=O)NC(=O)[C@H](Cc1ccc(Cl)cc1)NC(=O)OC` [Example 48, 4-chloro-N-{(1S)-1-ethyl-4-[(4R)-2-imino-4-(2-methylpropyl)-5-oxo-4-phenylimidazolidin-1-yl]butyl}-N-alpha-(methoxycarbonyl)-L-phenylalaninamide]: the IC50 worked out at 14 nM. Then `CC[C@@H](CCCN1C(=N)N[C@](CC(C)C)(c2ccccc2)C1=O)NC(=O)[C@H](Cc1cccc(Cl)c1)NC(=O)OC` [Example 49, 3-chloro-N-{(1S)-1-ethyl-4-[(4R)-2-imino-4-(2-methylpropyl)-5-oxo-4-phenylimidazolidin-1-yl]butyl}-N-alpha-(methoxycarbonyl)-L-phenylalaninamide], with 15 nM; and `CC[C@@H](CCCN1C(=N)N[C@](CC(C)C)(c2ccccc2)C1=O)NC(=O)[C@H](Cc1ccccc1Cl)NC(=O)OC` [Example 50, 2-chloro-N-{(1S)-1-ethyl-4-[(4R)-2-imino-4-(2-methylpropyl)-5-oxo-4-phenylimidazolidin-1-yl]butyl}-N-alpha-(methoxycarbonyl)-L-phenylalaninamide], with 6 nM; and `COC(=O)N[C@@H](Cc1ccccc1)C(=O)NCCC[C@H](C1CC1)N1C(=N)N[C@](CC(C)C)(c2ccccc2)C1=O` [Example 51, N-{(4R)-4-cyclopropyl-4-[(4R)-2-imino-4-(2-methylpropyl)-5-oxo-4-phenylimidazolidin-1-yl]butyl}-N-alpha-(methoxycarbonyl)-L-phenylalaninamide], with 7 nM. Turning to `COC(=O)N[C@@H](Cc1ccccc1)C(=O)NCCC[C@@H](C1CC1)N1C(=N)N[C@](CC(C)C)(c2ccccc2)C1=O` [Example 52, N-{(4S)-4-cyclopropyl-4-[(4R)-2-imino-4-(2-methylpropyl)-5-oxo-4-phenylimidazolidin-1-yl]butyl}-N-alpha-(methoxycarbonyl)-L-phenylalaninamide], the IC50 was determined as 605 nM. Then `COC(=O)N[C@@H](Cc1ccccc1)C(=O)NCCC[C@@H](CC1CC1)N1C(=N)N[C@](CC(C)C)(c2ccccc2)C1=O` [Example 53, N-{(4S)-5-cyclopropyl-4-[(4R)-2-imino-4-(2-methylpropyl)-5-oxo-4-phenylimidazolidin-1-yl]pentyl}-N-alpha-(methoxycarbonyl)-L-phenylalaninamide], with 249 nM; and `COC(=O)N[C@@H](Cc1ccccc1)C(=O)NCCC[C@@H](C)N1C(=N)N[C@](CC(C)C)(c2ccccc2)C1=O` [Example 54, N-{(4R)-4-[(4R)-2-imino-4-(2-methylpropyl)-5-oxo-4-phenylimidazolidin-1-yl]pentyl}-N-alpha-(methoxycarbonyl)-L-phenylalaninamide], with 190 nM; and `CC[C@H](CCCNC(=O)[C@H](Cc1ccccc1)NC(=O)OC)N1C(=N)N[C@](CC(C)C)(c2ccccc2)C1=O` [Example 55, N-{(4R)-4-[(4R)-2-imino-4-(2-methylpropyl)-5-oxo-4-phenylimidazolidin-1-yl]hexyl}-N-alpha-(methoxycarbonyl)-L-phenylalaninamide], with 532 nM. The value for `COC(=O)N[C@@H](Cc1ccccc1)C(=O)NCCC[C@@H](CCC1CC1)N1C(=N)N[C@](CC(C)C)(c2ccccc2)C1=O` [Example 56, N-{(4R)-6-cyclopropyl-4-[(4R)-2-imino-4-(2-methylpropyl)-5-oxo-4-phenylimidazolidin-1-yl]hexyl}-N-alpha-(methoxycarbonyl)-L-phenylalaninamide] was 100 nM.
